Reference: patent US20040067883A1, “Use of matrix metalloprotease inhibitors for the treatment of cancer” (priority 2000, published 2004)

Tests used:
p38γ = target: T1, p38γ (Homo sapiens, UniProt P53778); settings: reported (ref. 27); cited from earlier work
T1 sequence (P53778 1-367): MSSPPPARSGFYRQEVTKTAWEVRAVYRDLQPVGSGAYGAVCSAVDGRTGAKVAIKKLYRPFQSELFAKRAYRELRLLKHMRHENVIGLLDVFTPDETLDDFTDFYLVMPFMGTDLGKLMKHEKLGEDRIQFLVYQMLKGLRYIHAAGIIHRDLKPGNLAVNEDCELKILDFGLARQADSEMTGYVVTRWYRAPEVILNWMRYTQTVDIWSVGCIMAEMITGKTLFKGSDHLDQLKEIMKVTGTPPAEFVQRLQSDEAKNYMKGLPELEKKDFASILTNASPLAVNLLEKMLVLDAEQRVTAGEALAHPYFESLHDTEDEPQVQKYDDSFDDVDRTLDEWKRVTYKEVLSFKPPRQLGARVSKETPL

UM-SCC-1 cells [1] = test: Cell growth curves (MTT-vital stain); assay type: cell-based, human; settings: 5 μM and 10 μM, up to 5 days, medium with 10% FBS
UM-SCC-1 cells [2] = test: In vitro invasion assay on Matrigel coated filters; assay type: cell-based, human; settings: 60 hours, serum-free medium, +/− S.E., 3 dishes
Protocol: Invasion assays were performed as described (20, 25) using filters with 8 μm pore size coated with ⅓ diluted Matrigel®/SFM (Becton Dickinson, Bedford, Mass.). […] For experiments utilizing a mouse monoclonal MMP-9 Antibody (#IM09L, Oncogene Research Products, Cambridge, Mass.) (0.5, 1, and 10 μg/ml) cells were either plated out in SFM plus antibody of SFM plus similar amounts of preimmune serum. The amount of invasion was determined on the basis of the MTT-activity on the lower side of the filter as a percentage of the total activity in the chamber.
The concentration of the carrier (DMSO) was maintained at 0.1%. […] The data are typical of triplicate experiments.
Invasion is expressed as the percentage of cells invading through Matrigel®. Invasion upon treatment with varying concentrations of the antibody recognizing the active and latent form of MMP-9 or preimmune serum provided by the manufacturer is expressed as average percentage+/−S.E. and represents 3 dishes in each group. The data are typical of triplicate experiments.

UMSCC-1 = settings: after treatment with phorbol myristate acetate (PMA); cited from earlier work
p38δ = target: T2, p38δ (Homo sapiens, UniProt O15264); settings: reported (ref. 27); cited from earlier work
T2 sequence (O15264 1-365): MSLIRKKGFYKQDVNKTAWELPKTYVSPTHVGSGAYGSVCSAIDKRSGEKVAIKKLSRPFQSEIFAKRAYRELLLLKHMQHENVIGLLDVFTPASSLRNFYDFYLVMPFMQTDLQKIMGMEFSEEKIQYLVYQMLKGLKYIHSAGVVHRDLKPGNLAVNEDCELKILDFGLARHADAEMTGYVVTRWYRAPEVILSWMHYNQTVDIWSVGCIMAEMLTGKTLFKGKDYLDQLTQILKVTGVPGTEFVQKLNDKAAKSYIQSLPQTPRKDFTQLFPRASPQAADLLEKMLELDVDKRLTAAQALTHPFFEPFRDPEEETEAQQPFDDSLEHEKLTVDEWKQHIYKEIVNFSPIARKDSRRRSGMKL

MMP-9 = settings: after treatment with phorbol myristate acetate (PMA); cited from earlier work
matrix-metalloproteases = settings: cited from earlier work

SMILES | inhibition of p38γ (p38γ) | effect on cell growth (UM-SCC-1 cells [1]) | reduction of in-vitro invasion (UM-SCC-1 cells [2]; 5 μM) | reduction of in-vitro invasion (UM-SCC-1 cells [2]; 10 μM) | inhibition of enhanced in-vitro invasiveness (UMSCC-1) | inhibition of p38δ (p38δ) | inhibition of enhanced MMP-9 secretion (MMP-9) | IC50 value (matrix-metalloproteases)
C[S+]([O-])c1ccc(-c2nc(-c3ccncc3)c(-c3ccc(F)cc3)[nH]2)cc1 (centres unmarked) [SB 203580] | not inhibited | does not affect cell growth | 43+/−9% | 69+/−8% | could be inhibited | not inhibited | could be inhibited | 
CNC(=O)[C@@H](NC(=O)[C@H](CC(C)C)[C@H](O)C(=O)NO)C(C)(C)C [marimastat] |  |  |  |  |  |  |  | micromolar range
